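Tested at 5 concentrations; 48 h exposure; 96-well plates; endpoints linearly interpolated, else capped at highest concentration. The concentration for full growth arrest is given as TGI.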
Columns and labels:
Experiment in all cases: growth of human tumour cells (NCI), 48 h
K-562 leukemia = test system: K-562 leukemia
SF-295 CNS = test system: SF-295 CNS
IGROV1 ovarian = test system: IGROV1 ovarian
LOX IMVI melanoma = test system: LOX IMVI melanoma
HCT-15 colon = test system: HCT-15 colon
HT29 colon = test system: HT29 colon
HCC-2998 colon = test system: HCC-2998 colon
PC-3 prostate = test system: PC-3 prostate
A549 NSCLC = test system: A549 NSCLC
RPMI-8226 leukemia = test system: RPMI-8226 leukemia
SW-620 colon = test system: SW-620 colon
SF-539 CNS = test system: SF-539 CNS
RXF 393 renal = test system: RXF 393 renal
ACHN renal = test system: ACHN renal
OVCAR-3 ovarian = test system: OVCAR-3 ovarian
SN12C renal = test system: SN12C renal
HCT-116 colon = test system: HCT-116 colon
NCI-H522 lung = test system: NCI-H522 lung
HOP-92 NSCLC = test system: HOP-92 NSCLC
SK-MEL-5 melanoma = test system: SK-MEL-5 melanoma

SMILES	TGI (K-562 leukemia)	TGI (SF-295 CNS)	TGI (IGROV1 ovarian)	TGI (LOX IMVI melanoma)	TGI (HCT-15 colon)	TGI (HT29 colon)	TGI (HCC-2998 colon)	TGI (PC-3 prostate)	TGI (A549 NSCLC)	TGI (RPMI-8226 leukemia)	TGI (SW-620 colon)	TGI (SF-539 CNS)	TGI (RXF 393 renal)	TGI (ACHN renal)	TGI (OVCAR-3 ovarian)	TGI (SN12C renal)	TGI (HCT-116 colon)	TGI (NCI-H522 lung)	TGI (HOP-92 NSCLC)	TGI (SK-MEL-5 melanoma)
CCO/C(O)=C(/C(=N)N1CCCC1)C(=O)Nc1ccc(F)cc1	> 100 µM	> 100 µM	> 100 µM	> 100 µM	> 100 µM	> 100 µM	> 100 µM	> 100 µM	> 100 µM	> 100 µM	> 100 µM	> 100 µM	> 100 µM	> 100 µM	> 100 µM	> 100 µM	> 100 µM	> 100 µM	–	–
COc1cc2ccc1OCc1cccc(n1)COc1ccc(cc1OC)C=Nc1ccc(cc1)-c1ccc(cc1)N=C2	> 100 µM	> 100 µM	> 100 µM	> 100 µM	> 100 µM	> 100 µM	> 100 µM	> 100 µM	> 100 µM	–	> 100 µM	> 100 µM	> 100 µM	> 100 µM	> 100 µM	> 100 µM	> 100 µM	> 100 µM	> 100 µM	> 100 µM
O=C1CCCCCC1CC(Sc1ccccc1)Sc1ccccc1 (stereo not given)	> 100 µM	> 100 µM	> 100 µM	> 100 µM	> 100 µM	> 100 µM	> 100 µM	> 100 µM	> 100 µM	> 100 µM	> 100 µM	> 100 µM	> 100 µM	> 100 µM	> 100 µM	–	–	> 100 µM	> 100 µM	> 100 µM
Cc1cc(=O)oc2c3c(ccc12)OC(c1ccc(Br)cc1)CC3=O (stereo not given)	19 µM	23.9 µM	32.5 µM	14.6 µM	34.2 µM	32 µM	59.2 µM	47.9 µM	34.8 µM	> 100 µM	23.9 µM	27.1 µM	–	29.4 µM	24.3 µM	> 100 µM	23.8 µM	18 µM	–	24.5 µM
Cc1ccc(CC(Cc2ccc(C)cc2C(=O)O)C(=O)O)cc1 (stereo not given)	–	> 100 µM	> 100 µM	> 100 µM	> 100 µM	> 100 µM	> 100 µM	> 100 µM	> 100 µM	> 100 µM	> 100 µM	> 100 µM	> 100 µM	> 100 µM	> 100 µM	> 100 µM	> 100 µM	> 100 µM	> 100 µM	> 100 µM
CCCCCCCCCCCCCCCC(=O)OC(COC(C)=O)CO[P+](=O)O (stereo not given)	> 100 µM	35.4 µM	59.6 µM	63.9 µM	43.8 µM	–	42.7 µM	> 100 µM	36.5 µM	> 100 µM	> 100 µM	53.3 µM	> 100 µM	92.8 µM	> 100 µM	> 100 µM	–	36.2 µM	34 µM	> 100 µM
COc1ccc([C@]23CCN(S(=O)(=O)c4ccc(C)cc4)[C@H]2[C@H](CO)C2(CC3)OCC(C)(C)CO2)cc1OC	> 100 µM	> 100 µM	> 100 µM	> 100 µM	> 100 µM	> 100 µM	> 100 µM	> 100 µM	> 100 µM	> 100 µM	> 100 µM	–	> 100 µM	> 100 µM	> 100 µM	> 100 µM	> 100 µM	> 100 µM	> 100 µM	> 100 µM
Cc1cc(=O)oc2c(C)c3oc(CBr)c(Br)c3cc12	66.8 µM	42.5 µM	36.1 µM	28.8 µM	> 100 µM	> 100 µM	70.7 µM	> 100 µM	37.2 µM	64.6 µM	52.1 µM	> 100 µM	41.6 µM	> 100 µM	> 100 µM	58.7 µM	67.9 µM	30.2 µM	–	33.8 µM
O=C1CC(c2ccc(Cl)cc2)C2(C(=O)NC(=O)NC2=O)C(c2ccc(Cl)cc2)C1 (stereo not given)	> 75 µM	> 75 µM	51.3 µM	> 75 µM	> 75 µM	> 75 µM	> 75 µM	> 75 µM	–	32.6 µM	67.4 µM	> 75 µM	52.2 µM	> 75 µM	> 75 µM	54 µM	> 75 µM	40.6 µM	54.9 µM	47.1 µM
CC(C)(CC#N)c1cc(CC(C)(C)c2cc(CC(C)(C)c3cc(C(C)(C)C4(C)OCCO4)no3)no2)no1	> 100 µM	> 100 µM	> 100 µM	–	> 100 µM	> 100 µM	> 100 µM	> 100 µM	> 100 µM	> 100 µM	> 100 µM	–	41.3 µM	> 100 µM	> 100 µM	> 100 µM	> 100 µM	> 100 µM	–	> 100 µM
CCOC(=O)C1=COC(C)(c2ccccc2)CC1=O (stereo not given)	> 100 µM	> 100 µM	–	–	> 100 µM	> 100 µM	> 100 µM	> 100 µM	> 100 µM	> 100 µM	> 100 µM	> 100 µM	> 100 µM	> 100 µM	> 100 µM	> 100 µM	> 100 µM	> 100 µM	–	> 100 µM
C[C@H](CCC(=O)O)[C@H]1CC[C@H]2[C@@H]3[C@H](O)C[C@@H]4C[C@H](O)CC[C@]4(C)[C@H]3CC[C@]12C	> 100 µM	–	> 100 µM	> 100 µM	> 100 µM	87.4 µM	79.9 µM	> 100 µM	> 100 µM	54.8 µM	> 100 µM	62.1 µM	> 100 µM	> 100 µM	–	> 100 µM	> 100 µM	> 100 µM	91.1 µM	–
C[N+](C)(C)CC(=O)N/N=C(/CC1OC(=O)c2ccccc21)c1ccccc1O (stereo not given)	–	> 100 µM	> 100 µM	43.2 µM	> 100 µM	> 100 µM	50.9 µM	> 100 µM	> 100 µM	22.1 µM	> 100 µM	62.3 µM	86.4 µM	66.4 µM	> 100 µM	> 100 µM	> 100 µM	> 100 µM	87.6 µM	> 100 µM
CC(/C=N\NC(=S)N(C)C)=N/NC(=S)N(C)C	> 100 µM	> 100 µM	16.9 µM	> 100 µM	> 54.3 µM	> 100 µM	75.9 µM	> 100 µM	> 100 µM	> 100 µM	> 100 µM	> 100 µM	2.58 µM	–	> 22.8 µM	> 100 µM	31.4 µM	20.6 µM	31.2 µM	14.1 µM
COc1ccc2c(c1)CCC1=C/C(=N\NC(N)=O)CCC12C (stereo not given)	> 10 µM	> 10 µM	> 10 µM	> 10 µM	> 10 µM	> 10 µM	> 10 µM	> 10 µM	> 10 µM	> 10 µM	> 10 µM	> 10 µM	–	> 10 µM	> 10 µM	> 10 µM	> 10 µM	> 10 µM	> 10 µM	> 10 µM
Cc1sc(N)c(S(=O)(=O)c2ccccc2)c1C	> 100 µM	> 100 µM	> 100 µM	–	> 100 µM	> 100 µM	> 100 µM	> 100 µM	> 100 µM	> 100 µM	> 100 µM	71 µM	> 100 µM	> 100 µM	> 100 µM	> 100 µM	> 100 µM	> 100 µM	> 100 µM	> 100 µM
COc1ccc(CCNC(=O)CCc2ccccc2CO)cc1OC	> 100 µM	> 100 µM	> 100 µM	–	> 100 µM	> 100 µM	> 100 µM	> 100 µM	> 100 µM	> 100 µM	> 100 µM	> 100 µM	> 100 µM	> 100 µM	> 100 µM	> 100 µM	> 100 µM	> 100 µM	> 100 µM	> 100 µM
CCOP(=O)(OCC)[C@]12C[C@@H](C)C=C[C@H]1COC2=O	> 100 µM	> 100 µM	–	> 100 µM	–	–	> 100 µM	> 100 µM	> 100 µM	> 100 µM	> 100 µM	> 100 µM	> 100 µM	> 100 µM	> 100 µM	> 100 µM	> 100 µM	> 100 µM	–	> 100 µM
O=C(O)c1cc(O)c2c(c1)C([C@@H]1c3cccc(O)c3C(=O)c3c(O)cc(C(=O)O)cc31)c1cccc(O)c1C2=O (stereo not given in full)	86.4 µM	> 100 µM	49.4 µM	31.9 µM	–	> 100 µM	> 100 µM	> 100 µM	> 100 µM	> 100 µM	> 100 µM	55 µM	85 µM	> 100 µM	> 100 µM	> 100 µM	38.1 µM	44.6 µM	57.7 µM	32.2 µM
CC(=O)OC1CC[C@@]2(C)C(C1)CC(OC(C)=O)[C@@H]1C2CC(OC(C)=O)[C@]2(C)C(C(C)CC=C(c3ccc(Cl)cc3)c3ccc(Cl)cc3)CCC12 (stereo not given in full)	> 100 µM	> 100 µM	> 100 µM	–	> 100 µM	> 100 µM	> 100 µM	> 100 µM	> 100 µM	56.8 µM	> 100 µM	> 100 µM	–	> 100 µM	–	> 100 µM	> 100 µM	> 100 µM	–	> 100 µM
CC1(C)CCC[C@]2(C)[C@@H]1CC[C@@]13O[C@@H]1C1=C(CO)C(=O)OC1=C[C@@H]23	> 100 µM	44.9 µM	29.4 µM	–	63.7 µM	29.6 µM	46.7 µM	57.4 µM	24.4 µM	62.8 µM	37.5 µM	–	36.4 µM	> 100 µM	–	25.9 µM	12.8 µM	24.7 µM	37 µM	29.5 µM
NC(=S)N/N=c1\cc(C(=O)Nc2ccc([N+](=O)[O-])cc2[N+](=O)[O-])oc2ccccc12	–	> 100 µM	> 100 µM	> 100 µM	> 100 µM	> 100 µM	> 100 µM	> 100 µM	> 100 µM	–	> 100 µM	> 100 µM	> 100 µM	> 100 µM	> 100 µM	> 100 µM	> 100 µM	> 100 µM	> 100 µM	> 100 µM
CC(C)c1cccc(C(=O)NCCN(C)C)c1[N+](=O)[O-]	> 100 µM	> 100 µM	> 100 µM	–	> 100 µM	> 100 µM	> 100 µM	> 100 µM	> 100 µM	–	> 100 µM	> 100 µM	–	> 100 µM	> 100 µM	> 100 µM	> 100 µM	> 100 µM	–	> 100 µM
CCNc1nc2c(ncn2C2CC(O)C(COP(=O)(O)O)O2)c(=O)[nH]1 (stereo not given)	–	> 100 µM	> 100 µM	> 100 µM	> 100 µM	> 100 µM	> 100 µM	> 100 µM	> 100 µM	> 100 µM	> 100 µM	> 100 µM	–	> 100 µM	> 100 µM	> 100 µM	> 100 µM	> 100 µM	> 100 µM	> 100 µM
O=[N+]([O-])C(=C(Nc1ccccc1)Nc1ccccc1)/C(Cl)=C(\Cl)Br	13.2 µM	29.5 µM	–	15.2 µM	24.2 µM	29.7 µM	35 µM	30.7 µM	51.1 µM	18.8 µM	18.8 µM	46 µM	–	25 µM	19.4 µM	26.6 µM	20.1 µM	8.72 µM	33.6 µM	–
